Measured values taken from paper PMC12195967, “Cobalt(II) Complexes of 4′–Nitro–Fenamic Acid: Characterization and Biological Evaluation” (Molecules, 2025).
Like-named read-outs stand apart in the source and are kept apart here.

Legend:
[1] = system: EB–DNA adduct (CT DNA); test: EB-displacement (EB–DNA fluorescence quenching); format: binding, calf; conditions: for relative EB–DNA fluorescence emission intensity (I/Io, %), final: % of the initial EB–DNA fluorescence remaining, λemission 594 nm; for percentage of EB–DNA fluorescence emission quenching (ΔI/I0, %): λexcitation 540 nm, emission 594 nm, buffer pH 7; for quenching constant Kq (EB–DNA): τ0 = 23 ns
Procedure: For the current study, the EB–DNA adduct was prepared in situ after 1-h pretreatment of EB (40 μΜ) and CT DNA (40 μΜ) in buffer solution (sodium chloride 150 mM and sodium citrate 15 mM at pH = 7).
Furthermore, the Stern–Volmer constants (KSV) that represent the ability of the compounds to induce quenching were calculated with the Stern–Volmer equation (Equation (S2)) and the corresponding Stern–Volmer plots […] vs. [Q] (Figure S8). […] The corresponding quenching constants (Kq) were calculated with Equation (S3) using the value of 23 ns as the fluorescence lifetime (τ0) of EB–DNA adduct.
(§1) S3.4 EB−displacement studies
The competition of the compounds with EB was investigated by fluorescence emission spectroscopy to examine whether the compounds can displace EB from its DNA−EB adduct. The CT DNA−EB complex was formed by pre−treating 40 μM EB and […] CT DNA in buffer (150 mM NaCl and 15 mM trisodium citrate at pH 7.0). The possible displacement of EB by the compound sand subsequently the intercalating effect was studied by the stepwise addition of a certain amount of the solution of each compound into the solution of the CT DNA−EB adduct. The solutions were excited at 540 nm and the emission was monitored from 550−700 nm with λmax = 592−594 nm and the effect of the addition of the compounds to the CT−DNA EB solution was recorded. […]
(§2) fluorescence emission bands at room temperature in solution or in the presence of CT DNA or EB under the same experimental conditions (λexcitation = 540 nm); therefore, the observed quenching of the EB−DNA solution may be attributed to the displacement of EB from its […]
The Stern−Volmer constants (KSV, in M−1) were calculated according to the linear Stern−Volmer equation (equation S2) and the respective plots Io/I versus [compound]:
Io = 1 + K τ [Q] = 1 + K [Q] (equation S2) […]
where Io and I are the emission intensities of the EB−DNA solution in the absence and the presence of the compound, respectively, τo = the average lifetime of the emitting system without the quencher and kq = the quenching constant. Taking τo = 23 ns as the fluorescence lifetime of the EB−DNA adduct, the quenching constant of the compound (Kq, in M−1s−1) was calculated according to equation [6]: […]

[2] = system: supercoiled circular pBR322 plasmid DNA; test: Cleavage and photocleavage of plasmid DNA (gel electrophoresis); format: biochemical; conditions: compound 500 μM
Procedure: The cleavage of pBR322 plasmid DNA was evaluated both in the presence and absence of irradiation in order to further explore the interaction of the synthesized compounds with DNA and their possible biological efficacy. […] Following incubation of the samples at 37 °C, the impact of the compounds on pDNA was assessed using gel electrophoresis on 1% agarose gels stained with EB. Irradiation at 312 nm (UVB for 30 min), at 365 nm (UVA, for 120 min) or visible light (for 120 min) was also applied to further investigate the possibility of photocleavage activity of the compounds. […] The extent of pDNA damage from each compound was assessed by calculating the percentage of ss% and ds% using Equations (S4) and (S5).
as §1
The competition of the compounds with EB was investigated by fluorescence emission spectroscopy to examine whether the compounds can displace EB from its DNA−EB adduct. […] The solutions were excited at 540 nm and the emission was monitored from 550−700 nm with λmax = 592−594 nm and the effect of the addition of the compounds to the CT−DNA EB solution was recorded. […]
as §2

[3] = system: X. campestris, E. coli, B. subtilis and S. aureus; test: Antibacterial activity, MIC summarised over the bacteria tested; format: cell-based; conditions: read-out: MIC values against the bacteria tested
Procedure: buffer (50 mM, pH 7.4). The absorbance was measured at 230 nm after 10 min. The antioxidant activity (reduction of H2O2) of the compounds was expressed as the percentage decrease of the initial H2O2 solution (H2O2%). L−ascorbic acid (or vitamin C) was used as a […]
S2 Antibacterial Activity studies
The antibacterial activity of the compounds was evaluated by determining their respective MIC values towards two Gram–(–) (Escherichia coli XL1 (E. coli) and Xanthomonas campestris ATCC 1395 (X. campestris)) and two Gram–(+) (Staphylococcus aureus ATCC 29213 (S. aureus) and Bacillus subtilis ATCC 6633 (B. subtilis)) bacterial species. Cultures of these microbial strains were grown on a rich selective agar medium and stored at 4°C. The selective media used were Nutrient Agar or Broth for B. subtilis and S. aureus, Yeast Mold Agar or Broth for X. campestris and Luria Agar or Broth for E. coli. Cells picked from the surface of the stored cultures were used to initiate liquid pre–cultures of the same selective medium at an initial turbidity of roughly 1 McFarland unit.
Pre–cultures were incubated for 24 h in a rotary shaking incubator and subsequently […]
progressive double dilution.

Row | Compound | Stern–Volmer constant Ksv (EB–DNA) [1] | relative EB–DNA fluorescence emission intensity (I/Io, %), final [1] | percentage of EB–DNA fluorescence emission quenching (ΔI/I0, %) [1] | quenching constant Kq (EB–DNA) [1] | total pDNA damage ([2]; dark, 150 min) | MIC [3] | MIC ([3]; summary over the four strains) | pDNA damage ([2]; UVB irradiation 312 nm, 30 min)
1 | O=C(O)c1ccccc1Nc1ccc([N+](=O)[O-])cc1 [4′–NO2–fenH, 4′–nitrofenamic acid] | 5.36 (±0.27) × 10^4 M^−1 | 52.9% | 47.1% | 2.33 (±0.11) × 10^12 M^−1s^−1 | 57% | 48 to 97 µM | 12.5 to 25 µg/mL | –
2 | CO.CO.CO.CO.O=C([O-])c1ccccc1Nc1ccc([N+](=O)[O-])cc1.O=C([O-])c1ccccc1Nc1ccc([N+](=O)[O-])cc1.[Co+2] [Complex 1, [Co(4′–NO2–fen)2(MeOH)4]] | 4.99 (±0.14) × 10^4 M^−1 | 35.4% | 64.6% | 2.17 (±0.06) × 10^12 M^−1s^−1 | – | – | – | –
3 | O=C([O-])c1ccccc1Nc1ccc([N+](=O)[O-])cc1.O=C([O-])c1ccccc1Nc1ccc([N+](=O)[O-])cc1.[Co+2].c1ccc(Nc2ccccn2)nc1 [Complex 2, [Co(4′–NO2–fen)2(bipyam)]] | 8.91 (±0.21) × 10^4 M^−1 | 32.6% | 67.3% | 3.88 (±0.09) × 10^12 M^−1s^−1 | – | – | – | –
4 | O=C([O-])c1ccccc1Nc1ccc([N+](=O)[O-])cc1.O=C([O-])c1ccccc1Nc1ccc([N+](=O)[O-])cc1.[Co+2].c1cnc2c(c1)ccc1cccnc12 [Complex 3, [Co(4′–NO2–fen)2(phen)]] | 7.39 (±0.21) × 10^4 M^−1 | 26.3% | 73.7% | 3.21 (±0.09) × 10^12 M^−1s^−1 | – | – | – | 89%
5 | C[O-].C[O-].Cc1ccc2ccc3ccc(C)nc3c2n1.Cc1ccc2ccc3ccc(C)nc3c2n1.O=C([O-])c1ccccc1Nc1ccc([N+](=O)[O-])cc1.O=C([O-])c1ccccc1Nc1ccc([N+](=O)[O-])cc1.[Co+2].[Co+2] [Complex 4, [Co2(4′–NO2–fen)2(μ–CH3O)2(neoc)2]] | 7.78 (±0.24) × 10^4 M^−1 | 26.0% | 74.0% | 3.38 (±0.10) × 10^12 M^−1s^−1 | – | – | – | –
